From patent EP0494819B1, “Phenylimidazolidines, their process for fabrication, their application as medicaments and the pharmaceutical compositions containing them” (ROUSSEL UCLAF, priority 1991, dated 1992)

Columns and labels:
[1] = system: ornithine décarboxylase rénale; test: Androgen or anti-androgen activity by assay of renal ornithine decarboxylase in castrated mice, oral treatment; assay type: in vivo, souris mâles SWISS; settings: kidneys taken 16 h after treatment; for Antagonisme (PO): with testosterone propionate 3 mg/kg s.c.
Description: 2) Détermination de l'activité androgène ou anti-androgène des produits de l'invention à l'aide du dosage de l'ornithine de carboxylase.
16 heures après les traitements, les animaux sont sacrifiés, les reins prélevés, puis homogénéisés à 0°C , à l'aide d'un broyeur téflon-verre dans 10 volumes de tampon Tris-HCl 50 mM (pH 7,4) contenant 250 uM de phosphate de pyridoxal, 0,1 mM EDTA, et 5 mM de dithiothreitol. L'homogenat est ensuite centrifugé à 105000 g pendant 45 mn.
A 37°C, l'ornithine décarboxylase rénale transforme un mélange isotopique d'ornithine froide et d'ornithine tritiée en putrescine froide et putrescine tritiée.
La putrescine est ensuite recueillie sur des papiers sélectifs, échangeurs d'ions. Après séchage, l'excès d'ornithine tritiée et froide non transformée est éliminé, par 3 lavages d'ammoniaque 0,1 M. Les papiers sont séchés, puis la radioactivité est comptée après addition de scintillant Aqualite.
Les résultats sont exprimés en fmoles ([…]) de putrescine tritiée formée/heure/mg de protéines.

[2] = molecular target: T1, récepteur androgène (Rattus norvegicus, UniProt P15207); test: Affinity for the androgen receptor: relative binding affinity (ARL), displacement of tritiated testosterone in prostate cytosol of castrated rats; design: species or system rats mâles Sprague Dawley EOPS; settings: testosterone = 100, ARL=100 (CH)/(CX); for ARL (affinité relative de liaison), Incubation : 30 minutes: incubation 30 minutes at 0°C; for ARL (affinité relative de liaison), Incubation : 24 heures: incubation 24 hours at 0°C
T1 construct: Des aliquotes du surnageant obtenu (=cytosol), sont incubées 30 minutes et 24 heures à 0°C; from tissue; host or cells: prostate cytosol (105 000 g supernatant) of castrated male Sprague Dawley rats
T1 sequence (P15207 1-902): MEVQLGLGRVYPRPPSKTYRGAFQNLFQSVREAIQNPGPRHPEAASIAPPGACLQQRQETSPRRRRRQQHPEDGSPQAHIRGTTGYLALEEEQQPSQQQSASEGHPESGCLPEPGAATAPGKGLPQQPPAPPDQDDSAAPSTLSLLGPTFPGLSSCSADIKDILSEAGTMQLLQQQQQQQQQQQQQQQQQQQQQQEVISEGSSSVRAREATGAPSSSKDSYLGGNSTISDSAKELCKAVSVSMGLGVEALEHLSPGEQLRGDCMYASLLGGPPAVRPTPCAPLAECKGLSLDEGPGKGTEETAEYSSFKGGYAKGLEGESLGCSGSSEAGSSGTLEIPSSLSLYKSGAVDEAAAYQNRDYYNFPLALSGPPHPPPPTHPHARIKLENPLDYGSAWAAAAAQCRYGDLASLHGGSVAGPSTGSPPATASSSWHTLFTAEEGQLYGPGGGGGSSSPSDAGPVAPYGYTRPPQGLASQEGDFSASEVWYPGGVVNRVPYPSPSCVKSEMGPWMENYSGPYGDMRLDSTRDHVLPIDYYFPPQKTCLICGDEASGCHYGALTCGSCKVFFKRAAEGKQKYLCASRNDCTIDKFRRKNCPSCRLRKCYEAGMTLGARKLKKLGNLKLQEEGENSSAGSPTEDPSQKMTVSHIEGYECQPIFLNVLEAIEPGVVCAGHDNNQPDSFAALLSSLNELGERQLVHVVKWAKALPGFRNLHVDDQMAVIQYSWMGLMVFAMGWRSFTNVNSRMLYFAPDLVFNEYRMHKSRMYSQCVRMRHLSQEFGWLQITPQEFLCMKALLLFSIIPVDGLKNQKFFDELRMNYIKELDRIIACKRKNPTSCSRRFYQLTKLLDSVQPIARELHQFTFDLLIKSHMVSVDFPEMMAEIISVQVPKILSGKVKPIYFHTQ
Description: 1) Etude de l'affinité des produits de l'invention pour le récepteur androgène
Des rats mâles Sprague Dawley EOPS de 180-200 g, castrés de 24 heures, sont sacrifiés, les prostates prélevées, pesées et homogénéisées à 0°C à l'aide d'un potter verre-verre, dans une solution tamponnée (Tris 10mM, saccharose 0,25M, PMSF (phénylméthanesulfonylfluoride) 0,1mM, Molybdate de sodium 20mM, HCl pH 7,4; auxquels on ajoute extemporanément 2mM de DTT (DL dithiothreitol), à raison de 1 g de tissu pour 8 ml de tampon.
L'homogénat est ensuite ultracentrifugé à 0°C, 45 minutes à 105 000 g.
Calcul de l'affinité relative de liaison (ARL).
On trace les 2 courbes suivantes : le pourcentage de l'hormone tritiée liée B/T en fonction du logarithme de la concentration de l'hormone de référence froide et B/T en fonction du logarithme de la concentration du produit froid testé. On détermine la droite d'équation I50=(B/Tmax + B/Tmin)/2. B/T max= % de l'hormone tritiée liée pour une incubation de cette hormone tritiée à la concentration (T). B/T min= % de l'hormone tritiée liée pour une incubation de cette hormone tritiée à la concentration (T) en présence d'un grand excès d'hormone froide (2500.10^-9M).
Les intersections de la droite I50 et des courbes, permettent d'évaluer les concentrations de l'hormone de référence froide (CH) et du produit froid testé (CX) qui inhibent de 50 % la liaison de l'hormone tritiée sur le récepteur.

## CC1(C)NC(=S)N(c2ccc(C#N)c(C(F)(F)F)c2)C1=O [Produit de l'exemple 15, 4-(4,4-diméthyl-5-oxo-2-thioxo-1-imidazolidinyl)-2-(trifluorométhyl)-benzonitrile]
[1]; 0,3 mg/kg PO
  Antagonisme (PO): 0,3 mg/kg : 4%
[1]; 1 mg/kg PO
  Antagonisme (PO): 1 mg/kg : 82%
[2]
  ARL (affinité relative de liaison), Incubation : 30 minutes: 69
  ARL (affinité relative de liaison), Incubation : 24 heures: 24

## CN1C(=O)N(c2ccc([N+](=O)[O-])c(C(F)(F)F)c2)C(=O)C1(C)C [Produit de l'exemple 1, 1-(4-nitro-3-(trifluorométhyl)phényl)-3,4,4-triméthyl-2,5-imidazolidinedione]
[2]
  ARL (affinité relative de liaison), Incubation : 30 minutes: 27,5
  ARL (affinité relative de liaison), Incubation : 24 heures: 3

## CC1(C)NC(=S)N(c2ccc(C#N)c(C(F)(F)F)c2)C1=N [Produit de l'exemple 14, 4-(4,4-diméthyl-5-imino-2-thioxo-1-imidazolidinyl)-2-(trifluorométhyl)-benzonitrile]
[1]; 3 mg/kg PO
  Antagonisme (PO): 3 mg/kg : 87%
[2]
  ARL (affinité relative de liaison), Incubation : 30 minutes: 27
  ARL (affinité relative de liaison), Incubation : 24 heures: 7

## CN1C(=S)N(c2ccc(C#N)c(C(F)(F)F)c2)C(=N)C1(C)C [Produit de l'exemple 11, 4-(5-imino-2-thioxo-3,4,4-triméthyl-1-imidazolidinyl)-2-(trifluorométhyl)-benzonitrile]
[1]; 3 mg/kg PO
  Antagonisme (PO): 3 mg/kg : 83%
[2]
  ARL (affinité relative de liaison), Incubation : 30 minutes: 28
  ARL (affinité relative de liaison), Incubation : 24 heures: 8

## CN1C(=S)N(c2ccc(C#N)c(C(F)(F)F)c2)C(=S)C1(C)C [Produit de l'exemple 13, 4-(2,5-dithioxo-3,4,4-triméthyl-1-imidazolidinyl)-2-(trifluorométhyl)-benzonitrile]
[2]
  ARL (affinité relative de liaison), Incubation : 30 minutes: 31
  ARL (affinité relative de liaison), Incubation : 24 heures: 39

## CC(C)N1C(=O)N(c2ccc([N+](=O)[O-])c(C(F)(F)F)c2)C(=O)C1(C)C [Produit de l'exemple 4, 5,5-diméthyl-1-(1-méthyl éthyl)-3-(4-nitro-3-(trifluorométhyl)phényl)-2,4-imidazolidinedione]
[2]
  ARL (affinité relative de liaison), Incubation : 30 minutes: 21
  ARL (affinité relative de liaison), Incubation : 24 heures: 5

## CCN1C(=O)N(c2ccc([N+](=O)[O-])c(C(F)(F)F)c2)C(=O)C1(C)C [Produit de l'exemple 2, 5,5-diméthyl-1-éthyl-3-(4-nitro-3-(trifluorométhyl)phényl)-2,4-imidazolidinedione]
[2]
  ARL (affinité relative de liaison), Incubation : 30 minutes: 22
  ARL (affinité relative de liaison), Incubation : 24 heures: 6

## CN1C(=S)N(c2ccc(C#N)c(C(F)(F)F)c2)C(=O)C1(C)C [Produit de l'exemple 12, 4-(5-oxo-2-thioxo-3,4,4-triméthyl-1-imidazolidinyl)-2-(trifluorométhyl)-benzonitrile]
[1]; 0,1 mg/kg PO
  Antagonisme (PO): 0,1 mg/kg : 12%
[1]; 0,3 mg/kg PO
  Antagonisme (PO): 0,3 mg/kg : 36%
[1]; 1 mg/kg PO
  Antagonisme (PO): 1 mg/kg : 68%
[1]; 3 mg/kg PO
  Antagonisme (PO): 3 mg/kg : 94%
[1]; 10 mg/kg PO
  Antagonisme (PO): 10 mg/kg : 99%
[1]; 10 mg/kg PO, without testosterone propionate
  Angonisme (PO): 10 mg/kg : 0%
[2]
  ARL (affinité relative de liaison), Incubation : 30 minutes: 128
  ARL (affinité relative de liaison), Incubation : 24 heures: 92
